In turn, `CC1(c2ccc(Cl)s2)NC(=O)NC1=O` (configuration not stated) registered a melting point of 183 to 185 °C.

Regarding `CC(C)CN1CCOC(CNC(=O)CCl)C1` (configuration not stated), the melting point lay in the range of 83 to 85 °C.

As for `Oc1ccc(-c2nc3ccccc3s2)cc1Cl`, the melting point was 186 to 188 °C.

`CCCCn1c(N)cc(=O)[nH]c1=O`: the melting point lay within 238 to 240 °C.

In turn, `O=C(O)c1coc(Br)c1` displayed a melting point of 133 to 135 °C.

Consider `CNC(=O)CC1CCNCC1`, for which the melting point lay within 105 to 107 °C.

Consider `CSc1ccc(C(=O)O)cc1[N+](=O)[O-]`, for which the melting point is 225 to 227 °C.

For the compound `NC(C(=O)O)c1cccc(F)c1` (configuration not stated), the melting point fell in the range of 273 to 275 °C.

As to `O=C(O)CCn1c(=O)oc2cc(Cl)ccc21`, the melting point is 160 to 162 °C.

Compound `O=C(O)CC1=NN(c2ccc(Cl)nn2)C(=O)C1` registered a melting point of 183 to 185 °C.

`NC(Cc1nc2ccccc2[nH]1)=NO` returned a melting point of 138 to 140 °C.

In turn, `O=C(O)CN1CC(=O)Oc2ccccc21` had a melting point of 176 to 178 °C.

For `CN(C)c1ccnc(C(=O)O)c1`, the melting point is 234 to 236 °C.

In the case of `NC1CC(=O)N(c2ccc(Oc3ccccc3)cc2)C1` (configuration not stated), the melting point fell in the range of 112 to 114 °C.

`O=C(O)c1cnc(-c2ccc(C(F)(F)F)cc2)s1` had a melting point of 160 to 162 °C.

For the compound `NC(=O)CCc1ccc(C(=O)O)cc1`, the melting point was in the range of 226 to 228 °C.

With `Clc1ccc(-c2cc(CBr)on2)cc1`, the melting point was 116 to 118 °C.

The compound `O=C(O)c1ccccc1Nc1ccc(SC(F)F)cc1` yielded a melting point of 116 to 118 °C.

Compound `O=C(Nc1ccccc1CO)c1ccco1` showed a melting point of 95 to 97 °C.

As to `Cc1ccc(S(=O)(=O)N(C)C)cc1N`, the melting point was in the range of 172 to 174 °C.

In turn, `O=C(Nc1cc(Cl)ccc1C(=O)O)c1ccc(F)cc1` came in with a melting point of 250 to 252 °C.

On to `O=C1CC(NC(=O)C(F)(F)F)c2ccsc21` (configuration not stated), for which the melting point was in the range of 133 to 135 °C.

`OCc1ccc2c(c1)NCC2` came in with a melting point of 49 to 51 °C.

`Cc1cc(NC(=O)OCC(F)(F)F)n(C)n1` came in with a melting point of 100 to 102 °C.

For the compound `Ic1n[nH]c2ccsc12`, the melting point is 174 to 176 °C.

For the compound `Cc1nc(COc2cccc(C(=O)O)c2)cs1`, the melting point fell in the range of 153 to 155 °C.

On to `NC(=O)C(N)Cc1ccccc1` (configuration not stated), for which the melting point lay within 93 to 95 °C.

`CN1CCN(c2ccc(CO)cc2F)CC1` came in with a melting point of 87 to 89 °C.

`O=C(O)CNc1ccccc1[N+](=O)[O-]` returned a melting point of 80 to 82 °C.

Compound `COc1ccc(-c2csc3nc(C)[nH]c(=O)c23)cc1OC` came in with a melting point of 249 to 251 °C.

Consider `CC1CCc2[nH]c(=O)sc2C1` (configuration not stated), for which the melting point fell in the range of 180 to 182 °C.

Compound `CC(C)(C)n1cc(C(=O)O)cn1` yielded a melting point of 155 to 157 °C.

`Cc1cc(C)cc(C=CC(=O)O)c1` yielded a melting point of 135 to 137 °C.

On to `Nc1nccnc1Br`, for which the melting point lay within 129 to 131 °C.

In the case of `O=C(O)C1CCN(c2ccc(C(F)(F)F)cc2[N+](=O)[O-])CC1`, the melting point lay within 141 to 143 °C.

Consider `Cc1nn(-c2ccccc2)cc1C(=O)O`, for which the melting point fell in the range of 192 to 194 °C.

`O=C(O)CCCN1C(=O)CSC1=S` gave a melting point of 124 to 126 °C.

In turn, `Nc1ccc(N2CCOCC2)c(F)c1` yielded a melting point of 121 to 123 °C.

On to `COc1ccc(C(=O)c2ccc(OC)cc2OC)cc1`, for which the melting point lay in the range of 69 to 73 °C.

As to `O=C(O)c1ccccc1OCc1cccc(Br)c1`, the melting point is 108 to 110 °C.

Consider `O=C(O)C1(Br)CCCC1`, for which the melting point was 66 to 68 °C.

Compound `CCOC(=O)CSc1nnc(-c2ccco2)o1` came in with a melting point of 59 to 61 °C.

As for `CNCCCc1cc(-c2ccc(F)cc2)n[nH]1`, the melting point was in the range of 104 to 106 °C.

Consider `Fc1ccc(CNc2nc3ccccc3s2)cc1`, for which the melting point is 155 to 157 °C.

As to `Nc1cc(F)ccc1N1C(=O)C2CCCCC2C1=O` (configuration not stated), the melting point lay within 174 to 176 °C.

The compound `COc1ccc(OCc2cc(C)on2)c(C(=O)O)c1` showed a melting point of 114 to 116 °C.

`CC(Oc1ccc(O)cc1)C(N)=O` (configuration not stated) displayed a melting point of 138 to 140 °C.

On to `COc1ccc(OC)c(-c2csc(N)n2)c1`, for which the melting point was 113 to 115 °C.

The compound `CNC(=O)c1cccc(CCN)c1` displayed a melting point of 110 to 112 °C.

In the case of `Cc1cc(C)n(-c2ccc(C(=O)O)cc2F)n1`, the melting point is 184 to 186 °C.

For the compound `CCOc1ccc2cc(C(=O)O)[nH]c2c1`, the melting point lay in the range of 168 to 170 °C.

`COc1cc2c(cc1OC)CN(Cc1ccccc1N)CC2` registered a melting point of 149 to 151 °C.

Compound `Cn1c(=O)oc2c(C(=O)O)cccc21` registered a melting point of 309 to 311 °C.

`O=C(O)c1cccnc1Oc1ccc(Br)cc1` had a melting point of 177 to 179 °C.

`CC(C)C(Br)C(=O)N1CCc2ccccc21` (configuration not stated) yielded a melting point of 111 to 113 °C.

In turn, `COC(=O)c1ccc(COc2ccccc2C=O)cc1` showed a melting point of 90 to 92 °C.

As for `CCCOc1ccc(C=O)cc1OCC`, the melting point was 36 to 38 °C.

`COC(=O)c1ncsc1SCc1ccccc1` returned a melting point of 92 to 94 °C.

Turning to `CS(=O)(=O)c1c(N)cccc1Cl`, the melting point was in the range of 97 to 99 °C.

The compound `O=c1[nH]cnc2cc(F)ccc12` gave a melting point of 260 to 262 °C.

Compound `CN(C)C(=O)c1cccnc1Cl` returned a melting point of 69 to 71 °C.

Consider `Cc1ccc(C)c(OCc2nnc(S)o2)c1`, for which the melting point lay in the range of 135 to 137 °C.

In turn, `COC(=O)CCNc1nc2ccccc2o1` yielded a melting point of 108 to 110 °C.

Regarding `O=C(O)Cc1csc(N2CCNC2=O)n1`, the melting point is 179 to 181 °C.

`O=C(O)C1CCN(c2ccc(Br)cn2)CC1` had a melting point of 213 to 215 °C.

For `O=C(O)CNC(=O)Cn1cncn1`, the melting point fell in the range of 206 to 208 °C.

As for `CC(C)(C)OC(=O)NC(C(N)=NO)c1ccccc1OC(F)(F)F` (configuration not stated), the melting point was in the range of 119 to 121 °C.

As for `Nc1cc2c(=O)[nH]cnc2cc1F`, the melting point lay within 319 to 321 °C.

Take `Nc1ccc(S(=O)(=O)Nc2ccc(Cl)cc2Cl)cc1`: the melting point lay in the range of 162 to 164 °C.

The compound `CC(C)(C)OC(=O)NC(C(N)=NO)C1CC1` (configuration not stated) returned a melting point of 147 to 149 °C.

Take `O=C(CCl)NC(=O)NCc1cccs1`: the melting point is 148 to 150 °C.

`CC(=O)CC(=O)NCCc1ccccc1` gave a melting point of 57 to 59 °C.

As to `NCc1cccc(S(=O)(=O)N2CCCCC2)c1`, the melting point was 67 to 69 °C.

In the case of `CCn1ccnc(Cl)c1=O`, the melting point lay in the range of 52 to 54 °C.

Compound `c1csc(-c2ncc[nH]2)c1` registered a melting point of 191 to 193 °C.

As for `O=C(O)C1(c2ccc(Br)cc2)CCC1`, the melting point was in the range of 117 to 119 °C.

Consider `CC(O)c1ccc2c(c1)CC(=O)N2` (configuration not stated), for which the melting point lay in the range of 171 to 173 °C.

`O=C(O)CONS(=O)(=O)c1ccc(F)cc1` came in with a melting point of 168 to 170 °C.

Consider `O=C(CCl)N1N=C(c2cc3ccccc3o2)CC1c1ccco1` (configuration not stated), for which the melting point lay in the range of 165 to 167 °C.

`C#CCNS(=O)(=O)c1ccccc1` had a melting point of 60 to 62 °C.

The compound `Sc1nnc(NCCc2ccccc2)s1` registered a melting point of 143 to 145 °C.

`CCC(C)n1c(SCC(=O)O)nnc1-c1ccccc1` (configuration not stated) registered a melting point of 155 to 157 °C.

Regarding `CC(C)(C)NC(=O)C1CCCCN1` (configuration not stated), the melting point fell in the range of 79 to 81 °C.

In turn, `O=S(=O)(NC1CCCNC1)c1cccc(F)c1` (configuration not stated) came in with a melting point of 137 to 139 °C.

As to `O=S(=O)(O)c1ccc2c(c1)CCCO2`, the melting point is 80 to 82 °C.

`N#Cc1ccc(S(=O)(=O)Cl)cn1` came in with a melting point of 67 to 69 °C.

Compound `Cn1c(Cl)cc(=O)[nH]c1=O` had a melting point of 195 to 197 °C.

The record behind these values is a melting point compilation (Tetko et al.).
